{
  "source": "patent US20100280050A1",
  "about": "“Piperidinylamino-Thieno[2,3-D] Pyrimidine Compounds for Treating Fibrosis” (priority 2007, published 2010)",
  "key": {"[1]": {"test_system": "all other 5-HT receptor subtypes", "assay": "affinity for the other 5-HT receptor subtypes", "format": "binding", "conditions": "5-HT2B versus all other 5-HT subtypes, except 5-HT1A"}, "[2]": {"biological_target": "more than 51 receptors including GPCRs, ion channels and receptor tyrosine kinases", "assay": "panel of more than 51 receptors", "format": "binding", "conditions": "almost no affinity, read-out: Ki, more than 51 receptors tested"}, "[3]": {"biological_target": "dopamine D3 receptor (Homo sapiens, UniProt P35462)", "sequence (P35462 whole entry, species assumed)": "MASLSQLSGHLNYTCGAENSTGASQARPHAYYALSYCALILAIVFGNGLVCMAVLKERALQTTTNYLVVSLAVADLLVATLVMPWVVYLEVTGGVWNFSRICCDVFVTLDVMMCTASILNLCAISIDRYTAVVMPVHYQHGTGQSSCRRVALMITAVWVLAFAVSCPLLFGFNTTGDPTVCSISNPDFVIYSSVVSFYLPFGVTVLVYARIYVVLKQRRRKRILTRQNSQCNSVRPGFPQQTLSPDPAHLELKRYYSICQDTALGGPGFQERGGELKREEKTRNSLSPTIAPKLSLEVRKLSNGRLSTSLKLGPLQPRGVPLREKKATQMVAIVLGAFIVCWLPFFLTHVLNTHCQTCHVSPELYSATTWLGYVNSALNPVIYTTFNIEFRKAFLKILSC", "assay": "dopamine D3 receptor affinity", "format": "binding", "conditions": "moderate activity"}, "[4]": {"biological_target": "dopamine D2 receptor (Homo sapiens, UniProt P14416)", "sequence (P14416 whole entry, species assumed)": "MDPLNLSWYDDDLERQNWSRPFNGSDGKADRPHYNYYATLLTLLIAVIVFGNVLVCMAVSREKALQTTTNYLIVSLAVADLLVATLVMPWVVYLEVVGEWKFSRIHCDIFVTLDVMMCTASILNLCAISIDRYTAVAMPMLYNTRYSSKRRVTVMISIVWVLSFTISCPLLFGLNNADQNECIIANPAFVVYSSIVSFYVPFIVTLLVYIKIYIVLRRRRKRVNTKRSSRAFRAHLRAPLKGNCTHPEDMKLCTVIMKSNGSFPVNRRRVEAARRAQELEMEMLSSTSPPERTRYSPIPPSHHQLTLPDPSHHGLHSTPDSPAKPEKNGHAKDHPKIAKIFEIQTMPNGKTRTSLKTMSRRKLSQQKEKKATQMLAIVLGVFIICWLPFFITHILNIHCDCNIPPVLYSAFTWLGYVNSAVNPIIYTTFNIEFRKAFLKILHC", "assay": "dopamine D2 receptor antagonism", "format": "biochemical", "conditions": "weak antagonist"}, "[5]": {"biological_target": "dopamine D1 receptor (Homo sapiens, UniProt P21728)", "sequence (P21728 whole entry)": "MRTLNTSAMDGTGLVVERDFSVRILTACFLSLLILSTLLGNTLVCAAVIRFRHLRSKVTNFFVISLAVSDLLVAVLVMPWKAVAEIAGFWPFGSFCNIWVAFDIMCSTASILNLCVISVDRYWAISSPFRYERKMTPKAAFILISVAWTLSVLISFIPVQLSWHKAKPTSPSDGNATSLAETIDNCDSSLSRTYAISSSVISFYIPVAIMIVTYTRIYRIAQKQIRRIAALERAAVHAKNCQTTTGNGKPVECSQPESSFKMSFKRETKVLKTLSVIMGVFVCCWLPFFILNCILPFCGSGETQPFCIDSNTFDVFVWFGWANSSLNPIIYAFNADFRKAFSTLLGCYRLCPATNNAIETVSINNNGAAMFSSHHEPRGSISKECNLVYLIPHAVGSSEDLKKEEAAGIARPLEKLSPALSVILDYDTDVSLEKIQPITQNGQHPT", "assay": "dopamine D1 receptor activity", "format": "binding", "conditions": "no activity"}, "[6]": {"biological_target": "dopamine D5 receptor (Homo sapiens, UniProt P21918)", "sequence (P21918 whole entry)": "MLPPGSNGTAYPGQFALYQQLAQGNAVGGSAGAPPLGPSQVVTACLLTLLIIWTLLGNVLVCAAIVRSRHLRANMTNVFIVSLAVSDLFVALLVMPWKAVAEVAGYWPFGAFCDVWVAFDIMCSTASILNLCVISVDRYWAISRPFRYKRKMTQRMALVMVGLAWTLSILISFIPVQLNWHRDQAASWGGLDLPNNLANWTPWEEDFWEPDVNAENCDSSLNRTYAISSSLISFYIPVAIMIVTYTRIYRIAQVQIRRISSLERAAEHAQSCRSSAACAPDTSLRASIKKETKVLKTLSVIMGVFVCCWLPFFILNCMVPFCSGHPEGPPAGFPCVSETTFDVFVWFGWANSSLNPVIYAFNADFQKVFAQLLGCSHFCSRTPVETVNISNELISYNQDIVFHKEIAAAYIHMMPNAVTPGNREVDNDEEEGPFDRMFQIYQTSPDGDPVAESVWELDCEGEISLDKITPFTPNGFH", "assay": "dopamine D5 receptor activity", "format": "binding", "conditions": "no activity"}, "[7]": {"biological_target": "σ1 receptor (Homo sapiens, UniProt Q99720)", "sequence (Q99720 whole entry)": "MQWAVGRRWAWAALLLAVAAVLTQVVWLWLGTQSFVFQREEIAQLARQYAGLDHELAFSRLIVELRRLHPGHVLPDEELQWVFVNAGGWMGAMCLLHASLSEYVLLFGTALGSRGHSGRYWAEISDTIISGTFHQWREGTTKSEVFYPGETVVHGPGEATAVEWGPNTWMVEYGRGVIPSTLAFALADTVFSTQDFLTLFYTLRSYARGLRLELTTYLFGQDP", "assay": "σ1 receptor binding", "conditions": "moderate binding"}, "[8]": {"biological_target": "σ2 receptor (Homo sapiens, UniProt Q5BJF2)", "sequence (Q5BJF2 whole entry)": "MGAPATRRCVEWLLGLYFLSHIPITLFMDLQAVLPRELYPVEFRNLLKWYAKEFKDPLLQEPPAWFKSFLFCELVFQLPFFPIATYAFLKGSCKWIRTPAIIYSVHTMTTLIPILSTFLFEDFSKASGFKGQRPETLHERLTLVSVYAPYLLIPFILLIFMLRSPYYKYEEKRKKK", "assay": "σ2 receptor binding", "conditions": "moderate binding"}, "[9]": {"biological_target": "σ receptors", "assay": "σ receptor functional assays (agonist activity)", "format": "biochemical", "conditions": "very weak agonist"}, "[10]": {"test_system": "rat activated hepatic myofibroblasts", "assay": "acridine orange assay for morphological assessment of apoptosis", "format": "cell-based", "conditions": "1 μM dose", "protocol": "The compound 5-((4-(6-chlorothieno[2,3-d]pyrimidin-4-ylamino)piperidin-1-yl)methyl)-2-fluorobenzonitrile (hereinafter “compound A”), was evaluated for activity in promoting apoptosis of rodent and human activated hepatic myofibroblasts. The activity of compound A was compared against untreated cells, cells treated with dimethylsulfoxide, and cells treated with spiperone. Spiperone is a nonselective 5-HT2B antagonist. In the acridine orange assay for morphological assessment of apoptosis, compound A dose-dependently promotes elevated rates of apoptosis of rat activated hepatic myofibroblasts (40% of cells apoptotic with 1 μM dose). The results of the acridine orange assay are depicted in FIGS. 1-4."}, "[11]": {"test_system": "human activated hepatic myofibroblasts (primary activated hepatic stellate cells)", "assay": "apoptosis of human activated hepatic myofibroblasts", "format": "cell-based", "conditions": "overnight incubation", "protocol": "Compound A was tested on human activated hepatic myofibroblasts. The tested human cells were primary activated hepatic stellate cells isolated from normal human liver resected during removal of adjacent tumour tissue in patients with primary liver cancer. The cells were then cultured on plastic in full media and passaged at least 4 times to generate pure activated activated hepatic stellate cells, representing the major fibrogenic cell of the liver."}, "[12]": {"test_system": "Caspase 3/7 activity in rat activated hepatic stellate cells", "assay": "Caspase-Glo 3/7 assay in rHSC", "format": "cell-based", "conditions": "FIG. 7", "protocol": "Compound A was evaluated for activity in inducing Caspase 3/7 activity. Caspase 3 is involved in regulating apoptosis, and increases in Caspase 3 activity in this assay correlate to increased levels of apoptosis.\nGeneral Procedure: The assay was performed based on the following protocol: • 1. Passage rHSC at an appropriate density on a 96 well format and allow to adhere overnight. • 2. Treat cells with inhibitors for an appropriate length of time including the relevant controls. • 3. Allow both buffer and substrate to reach room temperature. • 4. Immediately prior to use, resuspend the substrate in 2.5 mL of buffer and mix thoroughly. • 5. Remove cells from incubator and allow the plates to cool to room temperature. • 6. Add Caspase-Glo® reagent at a 1:1 ratio (i.e. 100 μL to 100 μL media) and shake at 300 rpm for 30 sec. • 7. Incubate cells with Caspase-Glo® reagent for 2 h at room temperature protected from light. • 8. Transfer all media to white walled luciferase plates and determined luminescence using the MicroBeta luminometer. • 9. Caspase activity is expressed as fold-change relative to the untreated control.\nCaspase-Glo® 3/7 reagent is available from Promega (Calif., USA). The Caspase-Glo® reagent contains a DEVD-caspase substrate which is selectively cleaved by caspase enzymes 3 and 7. […]"}, "[13]": {"test_system": "lung lesions induced by monocrotaline (MCT)", "assay": "monocrotaline (MCT) model, lung lesion scoring", "format": "in vivo", "protocol": "(§1) Compound A was assayed for effects on lung and liver lesions, as well as liver fibrosis in animals suffering from liver fibrosis induced by monocrotaline (MCT).\n(§2) General Procedure: In this assay, animals were treated with MCT/vehicle, MCT with phosphate-buffered saline (PBS), or MCT with compound A. Following treatment, animals were sacrificed, and lung tissue was perfused and fixed in 10% neutral buffered formalin via the trachea. Lung and liver tissue was removed, sectioned and stained with hematoxylin-eosin. 41 liver and 41 lung slides were obtained for histologic evaluation. All slides were scored blindly without knowledge of experimental conditions. Lung and liver slides were evaluated according to the criteria listed below. Each parameter was subjectively evaluated and scored from 0-5, with 0 being no discernable lesions and 5 indicating the most severe lesions. Final scores for both the liver and lung lesions were calculated by averaging all parameters for each individual tissue.\n• 1. Alveolar edema • 2. Congestion • 3. Intra-alveolar hemorrhage • 4. Alveolar macrophage infiltrate • 5. Degree of erythrophagocytosis • 6. Degree of hemosiderosis • 7. Thickening of alveolar septa • 8. Type II pneumocyte hyperplasia • 9. General arterial thickening • 10. Thickening of tunica intima • 11. Thickening of tunica media • 12. Thickening of tunica adventitia • 13. Degree of perivascular edema. • 14. Perivascular inflammatory cells (lymphs and plasma cells) • 15. Increased BALT • 16. Endothelial reactivity and prominence."}, "[14]": {"test_system": "liver lesions induced by monocrotaline (MCT)", "assay": "monocrotaline (MCT) model, liver lesion scoring", "format": "in vivo", "conditions": "for liver lesion severity score compared to Vehicle+PBS control: p<0.05", "protocol": "as §1, §2\n(§3) • 1. Capsular fibrin • 2. Interlobular fibrosis • 3. Zone 1, 2, 3 necrosis • 4. Central vein, portal vein necrosis • 5. Sinusoidal spaces (hepatocytes dropout) • 6. Spaces of Disse • 7. Bile duct • 8. Bile caniliculi • 9. Kupffer cells • 10. Hepatocyte appositional surfaces • 11. Cell and nuclear size variation • 12. Cytoplasm variation"}, "[15]": {"test_system": "liver fibrosis induced by monocrotaline (MCT)", "assay": "monocrotaline (MCT) model, hepatic fibrosis analysis", "format": "in vivo", "protocol": "as §1, §2, §3\nThere were varying degrees of myofibroblast proliferation and collagen deposition surrounding portal tracts with occasional bridging into zones two and three. Bile duct proliferation was occasionally associated with areas of fibrosis."}},
  "data": [
    {"smiles": "N#Cc1cc(CN2CCC(Nc3ncnc4sc(Cl)cc34)CC2)ccc1F", "note": "[compound A, 5-((4-(6-Chlorothieno[2,3-d]pyrimidin-4-ylamino)piperidin-1-yl)methyl)-2-fluorobenzonitrile]", "values": [
      {"measurement": "differences in receptor affinities compared with all other 5-HT receptor subtypes", "setting": "[1]", "value": "more than 500 fold"},
      {"measurement": "Ki", "setting": "[2]", "value": "> 1000", "unit": "nM"},
      {"measurement": "Ki", "setting": "[3]", "value": "~310", "unit": "nM"},
      {"measurement": "IC50", "setting": "[4]", "value": 670, "unit": "nM"},
      {"measurement": "Ki", "setting": "[5]", "value": "> 5000", "unit": "nM"},
      {"measurement": "Ki", "setting": "[6]", "value": "> 5000", "unit": "nM"},
      {"measurement": "Ki", "setting": "[7]", "value": 100, "unit": "nM"},
      {"measurement": "Ki", "setting": "[8]", "value": 110, "unit": "nM"},
      {"measurement": "EC50", "setting": "[9]", "value": "~10000", "unit": "nM"},
      {"measurement": "cells apoptotic", "setting": "[10]", "value": 40, "unit": "%"},
      {"measurement": "apoptosis", "setting": "[11]; 1 μM", "value": 20, "unit": "%"},
      {"measurement": "apoptosis", "setting": "[11]; 100 μM", "value": 60, "unit": "%"},
      {"measurement": "Caspase activity (fold-change relative to the untreated control)", "setting": "[12]", "value": "increased Caspase activity in a time-dependent fashion"},
      {"measurement": "lung lesion score versus Vehicle+MCT group", "setting": "[13]; 50 mg/kg + MCT, p=0.09", "value": "lower lesion score"},
      {"measurement": "lung lesion score versus Vehicle+MCT group", "setting": "[13]; 100 mg/kg + MCT, p<0.01, similar to Vehicle+PBS group", "value": "reduced in severity"},
      {"measurement": "MCT-induced pulmonary lesion, histology (FIG. 11)", "setting": "[13]; MCT + 50 mg/kg, Part B", "value": "improvement of MCT-induced pulmonary lesion"},
      {"measurement": "MCT-induced pulmonary lesions, histology (FIG. 11)", "setting": "[13]; MCT + 100 mg/kg, Part C, compared to Part B", "value": "further reduction of MCT-induced pulmonary lesions"},
      {"measurement": "liver lesion severity score compared to Vehicle+PBS control", "setting": "[14]; 50 mg/kg + MCT", "value": "significant increase"},
      {"measurement": "liver lesion severity score compared to Vehicle+PBS control", "setting": "[14]; 100 mg/kg + MCT", "value": "significant increase"},
      {"measurement": "periportal necrosis, histology (FIG. 11)", "setting": "[14]; MCT + 50 mg/kg, Part B compared to Part A (vehicle + MCT)", "value": "slightly reduced"},
      {"measurement": "periportal necrosis, histology (FIG. 11)", "setting": "[14]; MCT + 100 mg/kg, Part C", "value": "further reduction of periportal necrosis"},
      {"measurement": "sinusoidal cells with small, condensed nuclei (may represent apoptotic stellate cells)", "setting": "[14]; groups receiving 50 mg/kg and 100 mg/kg", "value": "Moderate numbers"},
      {"measurement": "degree of periportal fibrosis", "setting": "[15]; monocrotaline + 50 mg/kg", "value": "minimal to mild fibrosis"},
      {"measurement": "livers with periportal fibrosis", "setting": "[15]; monocrotaline + 50 mg/kg, 4 out of 8 livers", "value": 50, "unit": "%"},
      {"measurement": "degree of periportal fibrosis", "setting": "[15]; monocrotaline + 100 mg/kg", "value": "negligible-very minimal (1 small triad) fibrosis"},
      {"measurement": "livers with periportal fibrosis", "setting": "[15]; monocrotaline + 100 mg/kg, 1 out of 13 livers", "value": 7, "unit": "%"}
    ]}
  ]
}
